Experimental data: ChEMBL document CHEMBL1142641, “New isomalabaricane derivatives from a new species of Jaspis sponge collected at the Vanuatu islands” (J Nat Prod, 2000)

Experiment: Cytotoxicity against mouse […] cells
Assay type: functional, cell-based

Structure (SMILES)	IC50 [µg/mL]
COC(=O)[C@]1(C)[C@@H]2CC[C@]3(C)/C(=C(/C)C=O)C(=O)C[C@@H]3[C@@]2(C)CC[C@H]1OC(C)=O	> 3.3
COC(=O)/C=C/C(C)=C1/C(=O)C[C@@H]2[C@@]3(C)CC[C@@H](OC(C)=O)[C@](C)(C(=O)OC)[C@@H]3CC[C@]12C [JASPIFEROIC ACID B DIMETHYL ESTER]	> 3.3
COC(=O)[C@]1(C)[C@@H]2CC[C@]3(C)\C(=C(C)/C=C/C=C(C)/C=C/C=O)C(=O)C[C@@H]3[C@@]2(C)CC[C@H]1OC(C)=O	> 3.3
COC(=O)[C@]1(C)[C@@H]2CC[C@]3(C)\C(=C(C)/C=C/C=C(\C)C(/C=C/C(C)(C)O)OC)C(=O)C[C@@H]3[C@@]2(C)CC[C@H]1OC(C)=O (some centres not stated) [GLOBOSTELLATIC ACD B METHYL ESTER]	> 3.3
COC(=O)[C@]1(C)[C@@H]2CC[C@]3(C)\C(=C(C)/C=C/C=C(C)/C=C/C(OC)C(C)(C)O)C(=O)C[C@@H]3[C@@]2(C)CC[C@H]1OC(C)=O (some centres not stated) [GLOBOSTELLATIC ACD C METHYL ESTER]	> 3.3
COC(=O)/C(C)=C1\C(=O)C[C@@H]2[C@@]3(C)CC[C@@H](OC(C)=O)[C@](C)(C(=O)OC)[C@@H]3CC[C@]12C [JASPIFEROIC ACID A DIMETHYL ESTER]	> 3.3
COC(=O)[C@]1(C)[C@@H]2CC[C@]3(C)\C(=C(C)/C=C/C=C(\C)C=O)C(=O)C[C@@H]3[C@@]2(C)CC[C@H]1OC(C)=O	> 3.3
